Results: ChEMBL document CHEMBL4699449, “Adenosine A Receptor Antagonists for Cancer Immunotherapy” (J Med Chem, 2020)
pIC50, pKi: −log10 of the molar value.

Columns and labels:
Adenosine receptor A2a [1] = target: T1, Adenosine receptor A2a (Mus musculus, UniProt Q60613); experiment: Antagonist activity at adenosine 2A receptor in BALB/c mouse T cells assessed as reduction in CGS-21680-induced suppression of IFN-gamma secretion incubated for 24 hrs by ELISA; assay type: cell-based, T cell
Adenosine receptor A2a [2] = target: T1, Adenosine receptor A2a; experiment: Antagonist activity at adenosine 2A receptor in BALB/c mouse T cells assessed as reduction in CGS-21680-induced suppression of IL-2 secretion incubated for 24 hrs by ELISA; assay type: cell-based, T cell
Adenosine receptor A1 = target: T2, Adenosine receptor A1 (Homo sapiens, UniProt P30542); experiment: Inhibition of FRET-labelled CA200645 binding to human adenosine A1 receptor expressed in CHO cells incubated for 2 hr by TR-FRET assay; assay type: cell-based
T2 sequence (P30542 whole entry): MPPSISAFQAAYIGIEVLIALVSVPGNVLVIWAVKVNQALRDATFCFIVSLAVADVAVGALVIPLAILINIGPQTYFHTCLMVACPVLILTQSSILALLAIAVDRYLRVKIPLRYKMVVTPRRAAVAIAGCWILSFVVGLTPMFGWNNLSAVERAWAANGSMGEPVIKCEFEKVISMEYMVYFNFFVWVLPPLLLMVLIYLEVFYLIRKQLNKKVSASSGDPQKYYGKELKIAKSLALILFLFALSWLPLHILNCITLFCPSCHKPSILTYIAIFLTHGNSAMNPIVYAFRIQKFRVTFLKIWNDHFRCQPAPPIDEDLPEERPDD

Adenosine receptor A3 = target: T3, Adenosine receptor A3 (Homo sapiens, UniProt P0DMS8); experiment: Inhibition of FRET-labelled CA200645 binding to human adenosine A3 receptor expressed in CHO cells incubated for 2 hr by TR-FRET assay; assay type: cell-based
T3 sequence (P0DMS8 whole entry): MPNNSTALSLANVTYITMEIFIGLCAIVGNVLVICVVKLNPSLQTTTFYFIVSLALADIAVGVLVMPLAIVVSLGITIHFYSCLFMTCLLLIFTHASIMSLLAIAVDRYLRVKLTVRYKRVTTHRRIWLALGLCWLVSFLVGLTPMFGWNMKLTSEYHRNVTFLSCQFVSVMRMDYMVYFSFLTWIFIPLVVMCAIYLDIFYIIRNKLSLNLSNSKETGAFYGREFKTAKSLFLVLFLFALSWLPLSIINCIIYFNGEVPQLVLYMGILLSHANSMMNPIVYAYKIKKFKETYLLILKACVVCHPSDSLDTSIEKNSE

Adenosine receptor A2a [3] = target: T4, Adenosine receptor A2a (Homo sapiens, UniProt P29274); experiment: Antagonist activity at adenosine 2A receptor in human blood assessed as reversal of NECA/LPS-stimulated TNF-alpha release incubated for 5 hrs; assay type: tissue-based
T4 sequence (P29274 whole entry): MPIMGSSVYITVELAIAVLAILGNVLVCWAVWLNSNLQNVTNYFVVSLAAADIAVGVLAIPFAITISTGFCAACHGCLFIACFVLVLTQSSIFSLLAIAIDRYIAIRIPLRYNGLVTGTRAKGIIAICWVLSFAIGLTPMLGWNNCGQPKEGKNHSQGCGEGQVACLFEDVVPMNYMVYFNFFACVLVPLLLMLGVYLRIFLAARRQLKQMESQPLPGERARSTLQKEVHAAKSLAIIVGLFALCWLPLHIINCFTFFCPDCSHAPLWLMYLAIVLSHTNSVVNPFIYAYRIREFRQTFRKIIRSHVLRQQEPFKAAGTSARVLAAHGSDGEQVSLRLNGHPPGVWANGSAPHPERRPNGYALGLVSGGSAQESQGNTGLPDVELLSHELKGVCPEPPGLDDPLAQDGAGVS

Adenosine receptor A2a [4] = target: T4, Adenosine receptor A2a; experiment: Inhibition of FRET-labelled CA200645 binding to human adenosine 2A receptor expressed in CHO cells incubated for 2 hr by TR-FRET assay; assay type: cell-based
Adenosine receptor A2a [5] = target: T4, Adenosine receptor A2a; experiment: Antagonist activity at human adenosine 2A receptor expressed in HEK293 cells assessed as reduction in NECA-induced cAMP level incubated for 15 mins by HTRF assay; assay type: functional, cell-based
[6] = Half life in mouse at 2 mg/kg, iv or 10 mg/kg, po measured up to 24 hrs by LC-MS/MS analysis; assay type: ADME, organism-based; conditions: in vivo
[7] = Cmax in mouse at 1 mg/kg, iv measured up to 24 hrs by LC-MS/MS analysis; assay type: ADME, organism-based; parameters: route intravenous, dose 1 mg/kg, time <=24; conditions: in vivo
Homo sapiens [8] = organism: Homo sapiens; experiment: Selectivity ratio of Ki for human adenosine A1 receptor to Ki for human Adenosine 2A receptor
Homo sapiens [9] = organism: Homo sapiens; experiment: Selectivity ratio of Ki for human adenosine A3 receptor to Ki for human Adenosine 2A receptor
Homo sapiens [10] = organism: Homo sapiens; experiment: Selectivity ratio of Ki for human adenosine 2B receptor expressed in HEK293 cells to Ki for human adenosine 2A receptor expressed in HEK293 cells; assay type: cell-based
Adenosine receptor A2a [11] = target: T4, Adenosine receptor A2a; experiment: Antagonist activity at adenosine 2A receptor in human PBMC assessed as reversal of NECA/CD3/CD28-stimulated IL-2 release incubated for 24 hrs
Adenosine receptor A2a [12] = target: T4, Adenosine receptor A2a; experiment: Antagonist activity at human adenosine 2A receptor expressed in HEK293 cells assessed as reduction in cAMP production preincubated for 10 mins followed by 3 nM A2A agonist NECA addition and measured after 30 mins by EU-cAMP tracer based TR-FRET assay; assay type: functional, cell-based
Adenosine receptor A2a [13] = target: T4, Adenosine receptor A2a; experiment: Antagonist activity at human adenosine 2A receptor expressed in HEK293 cells assessed as reduction in cAMP production preincubated for 10 mins followed by 5 nM A2A agonist NECA addition and measured after 30 mins by EU-cAMP tracer based TR-FRET assay; assay type: functional, cell-based
Adenosine receptor A2a [14] = target: T4, Adenosine receptor A2a; experiment: Antagonist activity at human adenosine 2A receptor expressed in HEK293 cells assessed as reduction in cAMP production preincubated for 10 mins followed by adenosine addition and measured after 30 mins by EU-cAMP tracer based TR-FRET assay; assay type: functional, cell-based
Adenosine receptor A2a [15] = target: T4, Adenosine receptor A2a; experiment: Antagonist activity at adenosine 2A receptor in human peripheral blood lymphocytes assessed as reduction in NECA-stimulated CREB phosphorylation by flow cytometric analysis; assay type: functional, cell-based, PBL
Adenosine receptor A2a [16] = target: T4, Adenosine receptor A2a; experiment: Antagonist activity at human adenosine 2A receptor expressed in T-REx-CHO cells preincubated for 1 hr followed by NECA stimulation and measured after 30 mins by Eu-cAMP tracer based TR-FRET assay; assay type: functional, cell-based; conditions: filed as antagonist, time 1.5 hrs
Adenosine receptor A2b = target: T5, Adenosine receptor A2b (Homo sapiens, UniProt P29275); experiment: Inhibition of FRET-labelled CA200645 binding to human adenosine 2B receptor expressed in CHO cells incubated for 2 hr by TR-FRET assay; assay type: cell-based
T5 sequence (P29275 whole entry): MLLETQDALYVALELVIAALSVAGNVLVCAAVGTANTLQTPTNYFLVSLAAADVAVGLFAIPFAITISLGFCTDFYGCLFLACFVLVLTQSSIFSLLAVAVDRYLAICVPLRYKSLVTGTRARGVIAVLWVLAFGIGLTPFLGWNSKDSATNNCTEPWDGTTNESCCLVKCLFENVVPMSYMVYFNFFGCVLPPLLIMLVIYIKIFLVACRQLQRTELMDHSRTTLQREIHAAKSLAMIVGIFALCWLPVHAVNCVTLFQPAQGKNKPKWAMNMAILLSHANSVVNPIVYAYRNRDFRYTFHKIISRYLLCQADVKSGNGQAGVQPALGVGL

Adenosine receptor A2a [17] = target: T4, Adenosine receptor A2a; experiment: Antagonist activity at adenosine 2A receptor in human whole blood assessed as reduction in phosphorylated CREB level preincubated for 20 mins followed by adenosine receptor agonist NECA addition and measured after 30 mins by flow cytometric analysis; assay type: functional, tissue-based

T1 sequence (Q60613 whole entry): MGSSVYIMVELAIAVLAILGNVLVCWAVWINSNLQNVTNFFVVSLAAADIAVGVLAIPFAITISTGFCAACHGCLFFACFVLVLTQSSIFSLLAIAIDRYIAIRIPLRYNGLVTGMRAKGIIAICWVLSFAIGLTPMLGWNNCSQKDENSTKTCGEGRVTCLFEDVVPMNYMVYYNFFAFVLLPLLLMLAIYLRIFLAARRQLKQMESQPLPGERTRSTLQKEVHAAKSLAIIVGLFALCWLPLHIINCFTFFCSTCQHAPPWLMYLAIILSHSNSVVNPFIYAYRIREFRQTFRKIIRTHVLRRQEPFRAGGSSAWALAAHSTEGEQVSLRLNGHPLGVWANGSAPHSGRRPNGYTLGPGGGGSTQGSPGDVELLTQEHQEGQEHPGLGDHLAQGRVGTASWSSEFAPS

## COc1ccc(-c2cnn(C)c2)c2nc(NC(=O)c3ccc(Cn4ccnc4)cc3)[nH]c12
Adenosine receptor A2a [1]
  pIC50: 7.40
Adenosine receptor A2a [2]
  pIC50: 7.40

## Cc1cccnc1CNC(=O)c1c(N)nc(-c2ccco2)nc1OCCF
Adenosine receptor A1
  pKi: 6.59
Adenosine receptor A3
  pKi: 7.21
Adenosine receptor A2a [3]
  pIC50: < 6.70
Adenosine receptor A2a [4]
  pKi: 8.89

## COCCn1cc(C(=O)Nc2nc3c(OC)ncc(N4CCOCC4)c3s2)cn1
Adenosine receptor A2a [5]
  pIC50: > 8.00
[6]
  half-life: 49 min
[7]
  Cmax: 1390 ng/mL

## COCCOc1ccc(N2CCN(CCn3ncc4c3nc(N)n3nc(-c5ccco5)nc43)CC2)cc1
Homo sapiens [8]
  Ratio Ki: 1000
Homo sapiens [9]
  Ratio Ki: 1000
Homo sapiens [10]
  Ratio Ki: 1000

## Cc1cccnc1CNC(=O)c1cnc(-c2ccco2)nc1N
Adenosine receptor A2a [11]
  pIC50: 7.11
Adenosine receptor A2a [3]
  pIC50: < 6.70

## COc1ncc(N2CCOCC2)c2nc(NC(=O)c3cnn(C)c3)[nH]c12
[6]
  half-life: 103 min
[7]
  Cmax: 733 ng/mL

## NC(=O)Cc1cc(N2CCN(CCn3c(=O)sc4c3nc(N)n3nc(-c5ccco5)nc43)CC2)c(F)cc1F
Adenosine receptor A2a [12]
  pIC50: 9.30
Adenosine receptor A2a [13]
  pIC50: 8.70
Adenosine receptor A2a [14]
  pIC50: 7.31
Adenosine receptor A2a [15]
  pIC50: 7.70

## COCc1cccc(Cn2cc(-c3cc(-c4ccco4)nc(N)n3)nn2)n1
Adenosine receptor A2a [16]
  Kb: < 100 nM

## COc1ccc(-c2ccccc2)c2ncc(NC(=O)N3CCC(C)(O)CC3)nc12
Adenosine receptor A2a [5]
  pIC50: > 7.00
[6]
  half-life: > 120 min

## COc1ncc(N2CCOCC2)c2sc(NC(=O)N3CCC(C)(O)CC3)nc12
[6]
  half-life: 10.3 min
[7]
  Cmax: 449 ng/mL

## COc1ccc(-c2cnn(C)c2)c2nc(NC(=O)N3CC[C@@]4(CCCOC4)C3)[nH]c12
[6]
  half-life: 66.6 min
[7]
  Cmax: 1440 ng/mL

## COc1ncc(-c2ccccc2)c2ncc(NC(=O)N3CCC(C)(O)CC3)nc12
Adenosine receptor A2a [5]
  pIC50: > 7.00

## COc1nc(-c2ncco2)nc(N)c1C(=O)NCc1c(Cl)cccc1Cl
Homo sapiens [8]
  Ratio Ki: 230
Adenosine receptor A2b
  pKi: 8.27
Adenosine receptor A2a [3]
  pIC50: < 6.70
Homo sapiens [9]
  Ratio Ki: 2490
Adenosine receptor A2a [17]
  pIC50: 7.77
Adenosine receptor A2a [4]
  pKi: 10.11
